Measurements: ChEMBL document CHEMBL4422670, “Ac4GlcNAcF3, an OGT-tolerated but OGA-resistant regulator for O-GlcNAcylation” (Bioorg Med Chem Lett, 2019)
Active and inactive are the calls of the source. The rule behind the calls is not given here.

Assays:
[1] = species: Mus musculus; test: Modulation of OGT/OGA in mouse NIH/3T3 cells assessed as increase in O-GlcNAcylation at 5 to 100 uM by Western blot analysis; assay type: cell-based
[2] = target: T1, Protein O-GlcNAcase (Mus musculus) (UniProt Q9EQQ9); test: Inhibition of OGA in mouse NIH/3T3 cells assessed as increase in O-GlcNAcylation at 20 uM after 24 hrs by Western blot analysis; assay type: cell-based
T1 sequence (whole entry): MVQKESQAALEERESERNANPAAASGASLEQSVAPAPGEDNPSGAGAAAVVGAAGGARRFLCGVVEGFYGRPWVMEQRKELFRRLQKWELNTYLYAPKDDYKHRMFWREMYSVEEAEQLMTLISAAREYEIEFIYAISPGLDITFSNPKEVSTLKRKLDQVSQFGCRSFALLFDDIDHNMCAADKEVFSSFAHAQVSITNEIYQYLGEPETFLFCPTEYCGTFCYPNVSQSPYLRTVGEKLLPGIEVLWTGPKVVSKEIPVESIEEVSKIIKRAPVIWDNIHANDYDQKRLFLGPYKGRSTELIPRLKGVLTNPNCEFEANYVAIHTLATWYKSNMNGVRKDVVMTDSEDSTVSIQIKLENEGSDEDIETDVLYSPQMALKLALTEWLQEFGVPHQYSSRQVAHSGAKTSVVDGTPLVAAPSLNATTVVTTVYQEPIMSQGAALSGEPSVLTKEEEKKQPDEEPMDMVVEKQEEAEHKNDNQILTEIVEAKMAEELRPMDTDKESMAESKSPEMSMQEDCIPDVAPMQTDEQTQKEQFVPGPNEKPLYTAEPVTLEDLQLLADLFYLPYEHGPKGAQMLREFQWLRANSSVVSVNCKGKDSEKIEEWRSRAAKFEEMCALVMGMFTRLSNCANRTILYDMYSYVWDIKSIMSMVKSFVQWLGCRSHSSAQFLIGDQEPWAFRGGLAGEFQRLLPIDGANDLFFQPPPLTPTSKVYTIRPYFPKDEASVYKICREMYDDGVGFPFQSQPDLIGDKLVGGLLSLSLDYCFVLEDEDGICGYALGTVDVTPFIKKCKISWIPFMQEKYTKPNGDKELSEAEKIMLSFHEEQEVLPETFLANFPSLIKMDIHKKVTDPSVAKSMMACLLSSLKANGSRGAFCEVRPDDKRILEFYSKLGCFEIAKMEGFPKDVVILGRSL

[3] = Cytotoxicity against mouse NIH/3T3 cells assessed as cell viability at 5 uM after 48 hrs by MTT assay relative to control; assay type: cell-based, NIH3T3; settings: read-out: Activity
[4] = Cytotoxicity against mouse NIH/3T3 cells assessed as cell viability at 10 uM after 48 hrs by MTT assay relative to control; assay type: cell-based, NIH3T3; settings: read-out: Activity
[5] = Cytotoxicity against mouse NIH/3T3 cells assessed as cell viability at 20 uM after 48 hrs by MTT assay relative to control; assay type: cell-based, NIH3T3; settings: read-out: Activity
[6] = Cytotoxicity against mouse NIH/3T3 cells assessed as cell viability at 50 uM after 48 hrs by MTT assay relative to control; assay type: cell-based, NIH3T3; settings: read-out: Activity
[7] = Cytotoxicity against mouse NIH/3T3 cells assessed as cell viability at 100 uM after 48 hrs by MTT assay relative to control; assay type: cell-based, NIH3T3; settings: read-out: Activity
[8] = Cytotoxicity against human HepG2 cells assessed as cell viability at 5 uM after 48 hrs by MTT assay relative to control; assay type: cell-based; settings: read-out: Activity
[9] = Cytotoxicity against human HepG2 cells assessed as cell viability at 10 uM after 48 hrs by MTT assay relative to control; assay type: cell-based; settings: read-out: Activity
[10] = Cytotoxicity against human HepG2 cells assessed as cell viability at 20 uM after 48 hrs by MTT assay relative to control; assay type: cell-based; settings: read-out: Activity
[11] = Cytotoxicity against human HepG2 cells assessed as cell viability at 50 uM after 48 hrs by MTT assay relative to control; assay type: cell-based; settings: read-out: Activity
[12] = Cytotoxicity against human HepG2 cells assessed as cell viability at 100 uM after 48 hrs by MTT assay relative to control; assay type: cell-based; settings: read-out: Activity
[13] = Cytotoxicity against human MCF7 cells assessed as cell viability at 5 uM after 48 hrs by MTT assay relative to control; assay type: cell-based; settings: read-out: Activity
[14] = Cytotoxicity against human MCF7 cells assessed as cell viability at 10 uM after 48 hrs by MTT assay relative to control; assay type: cell-based; settings: read-out: Activity
[15] = Cytotoxicity against human MCF7 cells assessed as cell viability at 20 uM after 48 hrs by MTT assay relative to control; assay type: cell-based; settings: read-out: Activity
[16] = Cytotoxicity against human MCF7 cells assessed as cell viability at 50 uM after 48 hrs by MTT assay relative to control; assay type: cell-based; settings: read-out: Activity
[17] = Cytotoxicity against human MCF7 cells assessed as cell viability at 100 uM after 48 hrs by MTT assay relative to control; assay type: cell-based; settings: read-out: Activity
[18] = Cytotoxicity against human HeLa cells assessed as cell viability at 5 uM after 48 hrs by MTT assay relative to control; assay type: cell-based; settings: read-out: Activity
[19] = Cytotoxicity against human HeLa cells assessed as cell viability at 10 uM after 48 hrs by MTT assay relative to control; assay type: cell-based; settings: read-out: Activity
[20] = Cytotoxicity against human HeLa cells assessed as cell viability at 20 uM after 48 hrs by MTT assay relative to control; assay type: cell-based; settings: read-out: Activity
[21] = Cytotoxicity against human HeLa cells assessed as cell viability at 50 uM after 48 hrs by MTT assay relative to control; assay type: cell-based; settings: read-out: Activity
[22] = Cytotoxicity against human HeLa cells assessed as cell viability at 100 uM after 48 hrs by MTT assay relative to control; assay type: cell-based; settings: read-out: Activity
[23] = Inhibition of lysosomal hexosaminidase (unknown origin); parameters: species or system Homo sapiens

Compound: CC(=O)OC[C@H]1OC(OC(C)=O)[C@H](NC(=O)C(F)(F)F)[C@@H](OC(C)=O)[C@@H]1OC(C)=O (stereo not given in full)
- Activity [1]: Active
- inhibition [2]: Active
- viability at 48 h, 5 µM [3]: 97.6%
- viability at 48 h, 10 µM [4]: 94.1%
- viability at 48 h, 20 µM [5]: 85.6%
- viability at 48 h, 50 µM [6]: 61.3%
- viability at 48 h, 100 µM [7]: 35.9%
- viability at 48 h, 5 µM [8]: 96.9%
- viability at 48 h, 10 µM [9]: 94.7%
- viability at 48 h, 20 µM [10]: 94.2%
- viability at 48 h, 50 µM [11]: 91.2%
- viability at 48 h, 100 µM [12]: 84.9%
- viability at 48 h, 5 µM [13]: 98.3%
- viability at 48 h, 10 µM [14]: 97.4%
- viability at 48 h, 20 µM [15]: 97.1%
- viability at 48 h, 50 µM [16]: 96.4%
- viability at 48 h, 100 µM [17]: 90.5%
- viability at 48 h, 5 µM [18]: 101%
- viability at 48 h, 10 µM [19]: 96.2%
- viability at 48 h, 20 µM [20]: 96%
- viability at 48 h, 50 µM [21]: 84.1%
- viability at 48 h, 100 µM [22]: 76.1%

Compound: CCNC1=N[C@@H]2[C@@H](O)[C@H](O)[C@@H](CO)O[C@@H]2S1
- inhibition [2]: Active

Compound: CC(=O)N[C@H]1/C(=N/OC(=O)Nc2ccccc2)O[C@H](CO)[C@@H](O)[C@@H]1O [PUGNAC]
- inhibition [2]: Active
- Ki [23]: 30 to 40 nM
